From patent publication US7883888B2, “Peptides selectively lethal to malignant and transformed mammalian cells” (The Research Foundation —The State University of New York, priority 2000, dated 2011) come the findings set out here.

In one experiment the test system is cultured cancer cells. Kind of experiment: cultured cancer cells treated with peptide without leader or with leader alone. The following applies: 100 μg/ml. It is filed as cell-based. The procedure:
When cultured cancer cells were treated with a peptide with the primary structure of SEQ ID NO:1 without a leader sequence attached, at a dosage of 100 μg/ml, the cells were unaffected. Similarly, when cultured cancer cells were treated with leader sequence SEQ ID NO:4, the presently preferred leader sequence, at the same dosage, the cell were also unaffected.

In experiment [1] the test system is malignant or normal cells. The experiment can be described thus: control peptide with leader on malignant or normal cells. Format: cell-based. To be noted: leader SEQ ID NO:4 at carboxy terminal end of control peptide.
Text: When the leader sequence set forth in SEQ ID NO:4 was positioned at the carboxy terminal end of PNC29, a control protein having the following amino acid sequence: [sequence]
The subject of experiment [2] is pancreatic carcinoma cells BMRPA1. TUC-3. Kind of experiment: s.c. BMRPA1.TUC-3 xenotransplant in Nu/Nu mice, established tumors, osmotic pump delivery (Example II). It is filed as in vivo. On the procedure:
Nu/Nu mice (Harlan Laboratories, Indianapolis, Ind., n=10) and weighing 20-22 g, were xenotransplanted subcutaneously (s.c.) with live pancreatic carcinoma cells BMRPA1. TUC-3 (1×10^6 cells/mouse) in the left hind region.
Each group was implanted s.c. with Alzet® osmotic pumps to deliver in a constant rate and over a defined period of 14 days a total volume of 0.095 ml volume of normal saline containing the respective peptide at a concentration of 20 mg/mouse. […] The pumps were filled according to the manufacturers guidelines and under sterile conditions The pumps were implanted s.c. on the left flank of the anaesthetized mice by creating a pocket underneath the mouse skin into which the tiny pumps were inserted. Each pocket was closed with a simple suture. From their inside chamber the pumps delivered continuously 0.25 μl/hr into each mouse. The mice were observed until they had recovered from the surgery when they were returned to the isolation ward of the animal facility. Since the animals were Nu/Nu mice and, thus, immuno-compromised they are highly susceptible when exposed to pathogens. Surgery and all preceding and post-surgical treatments were therefore performed in a sterile hood environment.

Another experiment deals with BMRPA.430 cells. Kind of experiment: normal pancreatic acinar cells BMRPA.430 in culture treated with synthetic peptide. Format: cell-based, rat. The following applies: 50 μg/ml; normal cell line. From the text:
(§1) A line of rat pancreatic acinar cells (BMRPA.430) grown in culture was transformed with K-ras.

In the next experiment the test system is HeLa cells. The experiment can be described thus: HeLa cells treated with synthetic peptide. It is filed as cell-based. The following applies: 100 μg/ml.
In experiment [3] the test system is non-malignant and non-transformed human breast cell lines. The experiment can be described thus: non-malignant, non-transformed human breast cell lines treated with synthetic peptide. It is filed as cell-based. To be noted: 100 μg/ml.
Experiment [4] has as its system human cancer cells, including homozygously p53 gene-deleted. Kind of experiment: toxicity of subject peptides to human cancer cells. It is filed as cell-based. On the procedure:
The following experiment was performed to compare effectiveness of subject peptides having the leader sequence attached to the amino terminal end.

Another experiment deals with TUC-3 cells. Kind of experiment: TUC-3 transformed pancreatic cancer cells in culture treated with synthetic peptide. Format: cell-based, rat. The following applies: for EFFECT: Table 3, leader is SEQ ID NO:4.
Text: as §1

In a further experiment the test system is Melanoma cells. Kind of experiment: Melanoma cells treated with synthetic peptide. It is filed as cell-based. To be noted: 100 μg/ml.
Experiment [5] concerns human breast carcinoma cell lines. Kind of experiment: human breast carcinoma cell lines treated with synthetic peptide. It is filed as cell-based. The following applies: 100 μg/ml.
Experiment [6] deals with non-malignant and non-transformed fibroblast cell lines. Kind of experiment: non-malignant, non-transformed fibroblast cell lines treated with synthetic peptide. Format: cell-based, human. To be noted: 100 μg/ml.

On to “SEQ ID NO:4: penetratin leader sequence from antennapedia protein alone, KKWKMRRNQFWVKVQRG (penetration leader sequence from antennapedia)”, for which, in the experiment with cultured cancer cells, the “effect on cultured cancer cells” value is recorded as “unaffected”.

Consider “PNC-29: control peptide of similar size, amino acid sequence MPFSTGKRIMLGE (SEQ ID NO: 25); in b48 with leader SEQ ID NO:4 at carboxy end (used as a control)”, for which, in experiment [1], the “effect on malignant or normal cells” value is “no effect”. For the same substance, in experiment [2] (control peptide, s.c. pump, 20 mg/mouse), the “effect on normal or tumor cells” value is reported as “no effect”. In [2] (over the 2-week treatment and follow-up period), this substance gave a tumor diameter of 10 to 16 mm. Moreover, the tumor growth result in experiment [2] (s.c. pump over 14 days, 20 mg/mouse, tumors 3 to 6 mm at start) is reported as “kept growing at a continuous rate”.

“SEQ ID NO:1 without a leader sequence attached: peptide PPLSQETFSDLWKLL (SEQ ID NO:1) without a leader sequence attached (amino acid residue 12-26 of human p53 protein)”: the “effect on cultured cancer cells” value with cultured cancer cells is recorded as “unaffected”.

For the substance “PNC 27: p53 seq. 12-26 (PPLSQETFSDLWKLL) (SEQ ID NO: 1)-Leader; leader is KKWKMRRNQFWVKVQRG (SEQ ID NO:4) (PPLSQETFSDLWKLLKKWKMRRNQFWVKVQRG; amino acid residue 12-26 of human p53 protein; penetration leader sequence from antennapedia)”, in the experiment with BMRPA.430 cells, the “effect on BMRPA.430 cells” value is listed as “not affected”. Moreover, the “cell death in HeLa cells” value in the experiment with HeLa cells is “cell death was observed”. In addition, the “effect on non-malignant and non-transformed human breast cell lines” value in experiment [3] is listed as “no effect”. Also, in experiment [4], the “toxicity to a wide variety of human cancer cells” value was “strongly toxic”. In addition, the “death of TUC-3 cells” value with TUC-3 cells (100 μg/ml) was “died within three to four days”. Also, the EFFECT result in the experiment on TUC-3 cells is reported as “Cytotoxic”. Besides, the “cell death in Melanoma cells” value in the experiment on Melanoma cells is recorded as “cell death was observed”. For the same substance, in [5], the “cell death in human breast carcinoma cell lines” value was “cell death was observed”. Also, the “effect on non-malignant and non-transformed fibroblast cell lines” value in [6] is “no effect”.

Turning to “PNC 21: p53 seq. 12-20 (PPLSQETFS) (SEQ ID NO: 2)-Leader; leader is KKWKMRRNQFWVKVQRG (SEQ ID NO:4) (PPLSQETFSKKWKMRRNQFWVKVQRG; amino acid residue 12-20 of human p53 protein; penetration leader sequence from antennapedia)”, in experiment [4], the “toxicity to a wide variety of human cancer cells” value is given as “strongly toxic”. Also, in the experiment with TUC-3 cells, the EFFECT entry is listed as “Cytotoxic”.
